Results published in US4782070A, “Cerebral dysfunction therapeutic agent, which comprises a dihydropyridine compound” (Fujisawa Pharmaceutical Co., Ltd., priority 1986, dated 1988).
Each block holds one compound with its values, some of them ahead of it.

Assays:
vertebral artery of dog = test: Effect on blood flow of the vertebral artery of dog; format: in vivo, Mongrel dogs
Description: Mongrel dogs of either sex (5-10 dogs per group), weighing 8-18 kg, were anesthetized with pentobarbital sodium (35 mg/kg, ip) and an electromagnetic flowprobe was fitted to the right vertebral artery and the blood flow of the vertebral artery was measured by a flow meter. Polyethylene cannulae were inserted into the femoral artery for measurement of blood pressure and into the femoral vein or the duodenum (after celiotomy) for administration of test compounds respectively.
Test compounds were dissolved in a mixture of ethanol, polyethylene glycol and distilled water, and administered in a volume of 0.2 ml/kg (iv) or 0.5 ml/kg (id). Incidentally, dogs were fasted for 18 hours in case of intraduodenum administration.

[1] = tested on: ischemic cerebral cortex of rat; test: Effect on blood flow in ischemic cerebral cortex of rat; format: in vivo, Male Wistar rats; conditions: po; for Increase in Blood Flow (Time-course of Vasodilation in Cortex of Occlusion Side): 1 mg/kg
Description: Male Wistar rats (5 rats per group), weighing 229-300 g, were anesthetized with thiopental sodium (50 mg/kg, ip). A skin incision was made in the middle of the right external auditory canal and the orbit, and a craniectomy (diameter: 2-2.5 mm) was made, using a dental drill, in the middle of the foramen ovale and the foramen opticum. After the dura was opened, the middle cerebral artery was exposed and occluded by electrocauterization using bipolar cautery.
After closure of the surgical wound, aminobenzylpenicillin (200 mg/kg) was divisionally administered into the operated part and subcutaneously.
One week after the surgery, the rats were anesthetized with urethane (1.25 g/kg, sc) and cannulae for artificial respiration and for measurement of blood pressure were inserted into the trachea and into the right femoral artery respectively, and then a stomach tube for administration of test compounds was inserted into stomach. The rats were fixed to stereotactic head-holders and craniectomies (diameter: 0.5 mm) were made on both sides of parietal skull, and then electrodes for measurement of local cerebral blood flow were inserted into right and left cerebral cortex (A=5, L=±5.0, H=2).
The blood flows of the ischemic (occlusion side) and non-ischemic (non-occlusion side) cerebral cortex of the rats used in this test were 17.4±4.5 and 51.4±1.2 ml/brain 100 g/minute, respectively. Test Compounds were dissolved in 100% polyethylene glycol and administered orally in a volume of 1 ml/kg.
The blood flow was calculated according to the following calculating formula after obtaining a half life (t1/2) from the clearance curve. [formula] λ: partition coefficient of hydrogen gas between blood and tissues (=1.0)
t1/2: a half life of concentration of hydrogen gas in brain

basilar artery = test: Remitting effect on a model of vasospasm after subarachnoid hemorrhage; format: in vivo, Mongrel cats; conditions: femoral vein
Description: Mongrel cats of either sex (3-5 cats per group) were anesthetized with pentobarbital sodium (60 mg/kg, sc) and tracheal cannulae were inserted, and the test was carried out under spontaneous respiration. Following transcervical, transclival approach, the canine basilar artery was exposed by opening the dura and arachnoid maters, using an operating microscope. 30 Minutes after the surgery, a mixture of an equal volume of blood and cerebrospinal fluid (CSF) (0.2 ml) preincubated under an aseptic condition (37° C., 6-7 days) was applied on the surface of canine basilar artery. At the same time, the test compound [dissolved in a mixture of ethanol, polyethylene glycol and distilled water (2:1:7, v/v/v), administration volume: 0.2 ml] or only vehicle was administered into the right femoral vein. After 10 minutes, the blood-CSF mixture was carefully removed and microphotographs of the canine basilar artery were taken with the passage of time, and the inside diameter of the artery was measured from the microphotographs.

[2] = tested on: isolated canine basilar artery; test: Effect on isolated canine basilar artery (relaxation of KCl contraction); parameters: species or system mongrel dogs; conditions: Canis lupus familiaris; dose inducing 50% relaxation; contraction by 35 mM KCl; papaverine 0.1 mM = 100%; mean±standard error; read-out: ED50 (the source's name)
Description: Under pentobarbital sodium anesthesia (35 mg/kg, ip or 30 mg/kg, iv), the basilar arteries (outside diameter: 1.0-1.5 mm) were isolated from mongrel dogs (weighing 8-18 kg) of either sex (6 dogs per group) and cut spirally (width 1 mm×length 15-20 mm). The spiral strips were suspended in a Tyrode's solution aerating with a gas mixture of 95% oxygen and 5% carbon dioxide, and the resting tension was adjusted to 0.5 g. After 1 hour, 35 mM potassium chloride was added to the organ bath to contract the arteries. The cumulative concentrations of the test compound, dissolved in a mixture of ethanol, polyethylene glycol and distilled water, were then added. Finally 0.1 mM papaverine was given to determine maximum relaxation.

[3] = tested on: Production of Lipid Peroxide in cerebral mitochondria of rat; test: Effect on Production of Lipid Peroxide in cerebral mitochondria of rat; format: biochemical, male Wistar rats; conditions: 37° C., 1 hour
Description: Cerebral mitochondria of male Wistar rats were isolated and mixed with a mixture of ascorbic acid (100 μM), ferrous sulfate (10 μM), ferric sulfate (20 μM) and test compound, and the mixture was incubated at 37° C. for 1 hour. The amount of malondialdehyde produced in the incubated mixture was measured by thiobarbituric acid method [Shimada et al., Biochim. Biophy. Acta, vol. 489, pp 163-172 (1977)].

cerebral circulation = conditions: cited from earlier work
ischemic brain = conditions: Occluded rat, 1.0 mg/kg sc once a day for 3 days
Description: Test compounds (1.0 mg/kg) (dissolved in polyethylene glycol, administration volume: 1 ml/kg) or vehicle was administered sc once a day for 3 days beginning from the fifth day after the surgery. One hour after the last administration, the rats were frozen in liquid nitrogen and then the whole brains of the both side excluding the cerebellum were isolated separately. The right hemisphere was homogenized with ice-cooled 6% perchloric acid (20 times in volume), centrifuged (3000 r.p.m., 10 minutes at 4° C.) and then the supernatant was neutralized with 5M potassium carbonate.
After the neutralization, the supernatant was centrifuged again and the concentrations of adenosine triphosphate (ATP) and lactic acid included in the resulting supernatant were measured by enzymatic assay.

[4] = tested on: rat with transient cerebral ischemia; conditions: cited from earlier work

EC50 [2]: 0.33 ± 0.04 nM
SMILES: COC(=O)C1=C(C#N)NC(C)=C(C(=O)OC(C)C)C1c1cccc([N+](=O)[O-])c1 (stereo not drawn) [Dihydropyridine Compound A, Isopropyl ester of 6-cyano-5-methoxycarbonyl-2-methyl-4-(3-nitrophenyl)-1,4-dihydropyridine-3-carboxylic acid]
Time-course of Changes of Blood Flow (vertebral artery of dog; 32 μg/kg, iv, 5 minutes): 109.6 ± 18.3%
Time-course of Changes of Blood Flow (vertebral artery of dog; 32 μg/kg, iv, 10 minutes): 96.7 ± 16.2%
Time-course of Changes of Blood Flow (vertebral artery of dog; 32 μg/kg, iv, 20 minutes): 81.3 ± 15.5%
Time-course of Changes of Blood Flow (vertebral artery of dog; 32 μg/kg, iv, 30 minutes): 77.7 ± 12.5%
Time-course of Changes of Blood Flow (vertebral artery of dog; 32 μg/kg, iv, 60 minutes): 71.2 ± 17.5%
Time-course of Changes of Blood Flow (vertebral artery of dog; 32 μg/kg, iv, 90 minutes): 61.4 ± 25.7%
Time-course of Changes of Blood Flow (vertebral artery of dog; 32 μg/kg, iv, 120 minutes): 52.1 ± 23.1%
Time-course of Changes of Blood Flow (vertebral artery of dog; 32 μg/kg, iv, 180 minutes): 31.0 ± 15.7%
Maximum Changes of Blood Flow (vertebral artery of dog; id, 10 μg/kg): 17.2 ± 6.0%
Maximum Changes of Blood Flow (vertebral artery of dog; id, 32 μg/kg): 39.7 ± 13.1%
Maximum Changes of Blood Flow (vertebral artery of dog; id, 100 μg/kg): 89.3 ± 11.5%
Maximum Changes of Blood Flow (vertebral artery of dog; iv, 3.2 μg/kg): 39.2 ± 7.2%
Maximum Changes of Blood Flow (vertebral artery of dog; iv, 10 μg/kg): 86.4 ± 20.6%
Maximum Changes of Blood Flow (vertebral artery of dog; iv, 32 μg/kg): 109.6 ± 18.3%
Increase in Blood Flow (Time-course of Vasodilation in Cortex of Occlusion Side) ([1]; 15 minutes): 17.8 ± 2.4%
Increase in Blood Flow (Time-course of Vasodilation in Cortex of Occlusion Side) ([1]; 30 minutes): 27.4 ± 3.7%
Increase in Blood Flow (Time-course of Vasodilation in Cortex of Occlusion Side) ([1]; 45 minutes): 32.6 ± 4.6%
Increase in Blood Flow (Time-course of Vasodilation in Cortex of Occlusion Side) ([1]; 60 minutes): 28.3 ± 2.5%
Increase in Blood Flow (Time-course of Vasodilation in Cortex of Occlusion Side) ([1]; 90 minutes): 21.6 ± 6.4%
Increase in Blood Flow (Time-course of Vasodilation in Cortex of Occlusion Side) ([1]; 120 minutes): 17.5 ± 7.3%
Maximum Increase in Blood Flow ([1]; Non-occlusion side, 0.1 mg/kg): 13.6 ± 1.7%
Maximum Increase in Blood Flow ([1]; Non-occlusion side, 1.0 mg/kg): 26.1 ± 4.8%
Maximum Increase in Blood Flow ([1]; Occlusion side, 0.1 mg/kg): 12.6 ± 3.1%
Maximum Increase in Blood Flow ([1]; Occlusion side, 1.0 mg/kg): 32.6 ± 4.6%
Time-course of Changes of the Diameter of the Artery (basilar artery; 10 μg/kg, 15 minutes): 17.0 ± 4.5%
Time-course of Changes of the Diameter of the Artery (basilar artery; 10 μg/kg, 30 minutes): 17.1 ± 4.6%
Time-course of Changes of the Diameter of the Artery (basilar artery; 10 μg/kg, 45 minutes): 18.3 ± 5.3%
Time-course of Changes of the Diameter of the Artery (basilar artery; 10 μg/kg, 60 minutes): 17.8 ± 3.8%
Time-course of Changes of the Diameter of the Artery (basilar artery; 10 μg/kg, 90 minutes): 15.5 ± 3.2%
Time-course of Changes of the Diameter of the Artery (basilar artery; 10 μg/kg, 120 minutes): 17.1 ± 5.1%
Time-course of Changes of the Diameter of the Artery (basilar artery; 100 μg/kg, 15 minutes): 16.6 ± 7.6%
Time-course of Changes of the Diameter of the Artery (basilar artery; 100 μg/kg, 30 minutes): 15.1 ± 5.1%
Time-course of Changes of the Diameter of the Artery (basilar artery; 100 μg/kg, 45 minutes): 25.9 ± 7.5%
Time-course of Changes of the Diameter of the Artery (basilar artery; 100 μg/kg, 60 minutes): 24.4 ± 7.5%
Time-course of Changes of the Diameter of the Artery (basilar artery; 100 μg/kg, 90 minutes): 21.6 ± 7.3%
Time-course of Changes of the Diameter of the Artery (basilar artery; 100 μg/kg, 120 minutes): 25.5 ± 7.9%
Inhibition of Production of Lipid Peroxide ([3]; 2.6 × 10^-4 (M)): 100.0%
Inhibition of Production of Lipid Peroxide ([3]; 2.6 × 10^-5 (M)): 96.94 ± 1.03%

EC50 [2]: 0.7 ± 0.07 nM
SMILES: COC(=O)C1=C(C)NC(C)=C(C(=O)OCCN(C)Cc2ccccc2)C1c1cccc([N+](=O)[O-])c1 (stereo not drawn) [Nicardipine, reference compound]
Time-course of Changes of Blood Flow (vertebral artery of dog; 32 μg/kg, iv, 5 minutes): 91.7 ± 14.8%
Time-course of Changes of Blood Flow (vertebral artery of dog; 32 μg/kg, iv, 10 minutes): 73.4 ± 15.2%
Time-course of Changes of Blood Flow (vertebral artery of dog; 32 μg/kg, iv, 20 minutes): 48.1 ± 13.2%
Time-course of Changes of Blood Flow (vertebral artery of dog; 32 μg/kg, iv, 30 minutes): 37.0 ± 10.4%
Time-course of Changes of Blood Flow (vertebral artery of dog; 32 μg/kg, iv, 60 minutes): 23.0 ± 17.7%
Time-course of Changes of Blood Flow (vertebral artery of dog; 32 μg/kg, iv, 90 minutes): 8.2 ± 10.8%
Time-course of Changes of Blood Flow (vertebral artery of dog; 32 μg/kg, iv, 120 minutes): -0.5 ± 8.9%
Maximum Changes of Blood Flow (vertebral artery of dog; id, 320 μg/kg): 33.7 ± 14.3%
Maximum Changes of Blood Flow (vertebral artery of dog; id, 1000 μg/kg): 56.0 ± 28.5%
Maximum Changes of Blood Flow (vertebral artery of dog; id, 3200 μg/kg): 131.3 ± 36.0%
Maximum Changes of Blood Flow (vertebral artery of dog; iv, 3.2 μg/kg): 31.4 ± 5.2%
Maximum Changes of Blood Flow (vertebral artery of dog; iv, 10 μg/kg): 77.8 ± 17.4%
Maximum Changes of Blood Flow (vertebral artery of dog; iv, 32 μg/kg): 91.7 ± 14.8%
Increase in Blood Flow (Time-course of Vasodilation in Cortex of Occlusion Side) ([1]; 15 minutes): 6.2 ± 1.8%
Increase in Blood Flow (Time-course of Vasodilation in Cortex of Occlusion Side) ([1]; 30 minutes): 13.4 ± 2.8%
Increase in Blood Flow (Time-course of Vasodilation in Cortex of Occlusion Side) ([1]; 45 minutes): 15.9 ± 2.5%
Increase in Blood Flow (Time-course of Vasodilation in Cortex of Occlusion Side) ([1]; 60 minutes): 11.6 ± 2.9%
Increase in Blood Flow (Time-course of Vasodilation in Cortex of Occlusion Side) ([1]; 90 minutes): 8.8 ± 4.2%
Increase in Blood Flow (Time-course of Vasodilation in Cortex of Occlusion Side) ([1]; 120 minutes): 9.1 ± 5.3%
Maximum Increase in Blood Flow ([1]; Non-occlusion side, 0.1 mg/kg): 8.9 ± 3.2%
Maximum Increase in Blood Flow ([1]; Non-occlusion side, 1.0 mg/kg): 20.5 ± 5.1%
Maximum Increase in Blood Flow ([1]; Occlusion side, 0.1 mg/kg): 6.4 ± 1.3%
Maximum Increase in Blood Flow ([1]; Occlusion side, 1.0 mg/kg): 15.9 ± 2.5%
duration of improving activity of cerebral circulation (cerebral circulation): short
improving activity of cerebral circulation (cerebral circulation): have improving activity of cerebral circulation
ATP (ischemic brain; vehicle 1.97 ± 0.06, normal rat 2.38 ± 0.13): 1.92 ± 0.11 μmol/brain 1 g
Lactic acid (ischemic brain; vehicle 3.84 ± 0.28, normal rat 1.83 ± 0.18): 3.84 ± 0.14 μmol/brain 1 g

SMILES: COCCOC(=O)C1=C(C)NC(C)=C(C(=O)OC(C)C)C1c1cccc([N+](=O)[O-])c1 (stereo not drawn) [nimodipine]
improving activity of cerebral circulation (cerebral circulation): have improving activity of cerebral circulation
brain ATP content after reperfusion ([4]; after reperfusion): improves
electroencephalogram after reperfusion ([4]; after reperfusion): improves
electroencephalogram and brain ATP content during ischemia ([4]; during ischemia): not improve them during ischemia
liberation of free fatty acids ([4]; same model): no effect
